From US12377175B2, “Trifunctional constructs with tunable pharmacokinetics useful in imaging and anti-tumor therapies” (Cornell University, priority 2016, dated 2025)

System: LNCaP xenograft tumor-bearing mice
Assay: Biodistribution studies of 177Lu-labeled ligands in LNCaP xenograft mice
Assay type: in vivo, mouse
Conditions: for Max. Tumor Uptake: corresponding 177Lu-labeled compound, 4 h p.i. (a)
Method: Inoculation of mice with xenografts: All animal studies were approved by the Institutional Animal Care and Use Committee of Weill Cornell Medicine and were undertaken in accordance with the guidelines set forth by the USPHS Policy on Humane Care and Use of Laboratory Animals. Animals were housed under standard conditions in approved facilities with 12 h light/dark cycles. Food and water was provided ad libitum throughout the course of the studies. Hairless male nu/nu mice were purchased from the Jackson Laboratory. For inoculation in mice, LNCaP cells were suspended at 4×10^7 cells/mL in a 1:1 mixture of PBS:Matrigel (BD Biosciences). Each mouse was injected in the left flank with 0.25 mL of the cell suspension. The mice were imaged when the tumors reached approximately 200-400 mm^3, while biodistributions were conducted when tumors were in the range 100-400 mm^3.
Biodistribution studies of 177Lu-labeled ligands in LNCaP xenograft mice: LNCaP xenograft tumor-bearing mice (5 per time point per compound) were injected intravenously with a bolus injection of 348-851 kBq (9.4-23 μCi) and 37-50 ng ([…]) of each ligand. The mice were sacrificed at 4, 24 and 96 h post injection. A blood sample was removed, and a full biodistribution study was conducted on the following organs (with contents): heart, lungs, liver, small intestine, large intestine, stomach, spleen, pancreas, kidneys, muscle, bone and tumor. Tissues were weighed and counted on a 2470 Wizard^2 Automatic Gamma Counter (Perkin Elmer). Counts were corrected for decay and for activity injected, and tissue uptake was expressed as percent injected dose per gram (% ID/g). Standard error measurement was calculated for each data point.

blood activity (comparison within the series) (4 h p.i.)	SMILES	Max. Tumor Uptake [% ID/g]
	O=C(O)CC[C@H](NC(=O)N[C@@H](CCCCNC(=O)Nc1cccc(-c2cn(CCOCCOCCOCCOCCOCCOCCC(=O)N[C@@H](CCCCNC(=S)Nc3ccc(CC4CN(CC(=O)O)CCN(CC(=O)O)CCN(CC(=O)O)CCN4CC(=O)O)cc3)C(=O)N[C@@H](CCCCNC(=O)Cc3ccc(I)cc3)C(=O)O)nn2)c1)C(=O)O)C(=O)O (stereo partly drawn) [RPS-069, (((1S)-1-carboxy-5-(3-(3-(1-((23S,26S)-26-carboxy-33-(4-iodophenyl)-21,24,32-trioxo-23-(4-(3-(4-((1,4,7,10-tetrakis(carboxymethyl)-1,4,7,10-tetraazacyclododecan-2-yl)methyl)phenyl)thioureido)butyl)-3,6,9,12,15,18-hexaoxa-22,25,31-triazatritriacontyl)-1H-1,2,3-triazol-4-yl)phenyl)ureido)pentyl)carbamoyl)-L-glutamic acid]	17.0 ± 2.1
	O=C(O)CC[C@H](NC(=O)N[C@@H](CCCCNC(=O)Nc1cccc(-c2cn(CCOCCOCCOCCOCCOCCOCCOCCOCCC(=O)N[C@@H](CCCCNC(=S)Nc3ccc(CC4CN(CC(=O)O)CCN(CC(=O)O)CCN(CC(=O)O)CCN4CC(=O)O)cc3)C(=O)N[C@@H](CCCCNC(=O)Cc3ccc(I)cc3)C(=O)O)nn2)c1)C(=O)O)C(=O)O (stereo partly drawn) [RPS-066, (((1S)-1-carboxy-5-(3-(3-(1-((29S,32S)-32-carboxy-39-(4-iodophenyl)-27,30,38-trioxo-29-(4-(3-(4-((1,4,7,10-tetrakis(carboxymethyl)-1,4,7,10-tetraazacyclododecan-2-yl)methyl)phenyl)thioureido)butyl)-3,6,9,12,15,18,21,24-octaoxa-28,31,37-triazanonatriacontyl)-1H-1,2,3-triazol-4-yl)phenyl)ureido)pentyl)carbamoyl)-L-glutamic acid]	18.7 ± 1.1
	O=C(O)CC[C@H](NC(=O)N[C@@H](CCCCNC(=O)Nc1cccc(-c2cn(CCOCCOCCOCCC(=O)N[C@@H](CCCCNC(=S)Nc3ccc(CC4CN(CC(=O)O)CCN(CC(=O)O)CCN(CC(=O)O)CCN4CC(=O)O)cc3)C(=O)N[C@@H](CCCCNC(=O)Cc3ccc(I)cc3)C(=O)O)nn2)c1)C(=O)O)C(=O)O (stereo partly drawn) [RPS-063, (((1S)-1-carboxy-5-(3-(3-(1-((14S,17S)-17-carboxy-24-(4-iodophenyl)-12,15,23-trioxo-14-(4-(3-(4-((1,4,7,10-tetrakis(carboxymethyl)-1,4,7,10-tetraazacyclododecan-2-yl)methyl)phenyl)thioureido)butyl)-3,6,9-trioxa-13,16,22-triazatetracosyl)-1H-1,2,3-triazol-4-yl)phenyl)ureido)pentyl)carbamoyl)-L-glutamic acid]	30.0 ± 6.9
	O=C(O)CC[C@H](NC(=O)N[C@@H](CCCCNC(=O)Nc1cccc(-c2cnnn2CCOCCOCCOCCOCCOCCOCCOCCOCCOCCOCCOCCOCCC(=O)N[C@@H](CCCCNC(=S)Nc2ccc(CC3CN(CC(=O)O)CCN(CC(=O)O)CCN(CC(=O)O)CCN3CC(=O)O)cc2)C(=O)N[C@@H](CCCCNC(=O)Cc2ccc(I)cc2)C(=O)O)c1)C(=O)O)C(=O)O (stereo partly drawn) [RPS-067, (((1S)-1-carboxy-5-(3-(3-(1-((41S,44S)-44-carboxy-51-(4-iodophenyl)-39,42,50-trioxo-41-(4-(3-(4-((1,4,7,10-tetrakis(carboxymethyl)-1,4,7,10-tetraazacyclododecan-2-yl)methyl)phenyl)thioureido)butyl)-3,6,9,12,15,18,21,24,27,30,33,36-dodecaoxa-40,43,49-triazahenpentacontyl)-1H-1,2,3-triazol-5-yl)phenyl)ureido)pentyl)carbamoyl)-L-glutamic acid]	7.6 ± 1.2
highest blood activity	O=C(O)CCC(NC(=O)NC(CCCCNC(=O)Nc1cccc(-c2cnnn2CC(=O)NC(CCCCNC(=S)Nc2ccc(CC3CN(CC(=O)O)CCN(CC(=O)O)CCN(CC(=O)O)CCN3CC(=O)O)cc2)C(=O)NC(CCCCNC(=O)Cc2ccc(I)cc2)C(=O)O)c1)C(=O)O)C(=O)O (centres unmarked) [177Lu-RPS-068, metal not drawn]	
